Data set [1] has as its system patients treated with neuroleptics. Conditions: open study, relative high doses; cited from earlier work.
The subject of data set [2] is unilaterally 6-OHDA-lesioned rats. Conditions: buspirone alone 0.5 mg/kg i.p. The source says: 6-OHDA (6-hydroxydopamine) is a neurotoxin that selectively kills dopaminergic and noradrenergic neurons and induces a reduction of dopamine levels in the brain. […] These are axial, limb and oral movements that occur only on the body side that is […] to the lesion.
In the mild cases: lateral flexion of the neck or torsional movements of the upper trunk towards the side contralateral to the lesion. With repeated injection of L-DOPA, this movement may develop into a pronounced and continuous dystonia-like axial torsion. […] In mild cases: hyperkinetic, jerky stepping movements of the forelimb contralateral to the lesion, or small circular movements of the forelimb to and from the snout.

In data set [3] the test system is LID model rats. Conditions: buspirone alone 0.2 mg/kg s.c., 11 min before AIM test; FIG. 8A.
Data set [4] deals with naïve rats. The following applies: retigabine alone 10 mg/kg i.p.; for total move distance (locomotor activity) in open field test: FIG. 6; for total velocity (locomotor activity) in open field test: FIG. 7; for locomotor activity (moving distance and velocity) in open field test: FIGS. 6 and 7. As for the experimental part: Species: 60 Sprague-Dawley male rats (180-220 g, bred in house, originally from SLAC Labortory Animal Co. Ltd) at 9-week of age.
Administration and dose regimen for the groups of animals (each comprising 10 rats):
Vehicle: 10% Tween 80, i.p., 30 min before test, n=10. Buspirone 1: Buspirone (From Sigma, Cat. No. B7148, Lot. No. 042K1763Z) 1 mg/kg, i.p. 30 min before test, n=10. Buspirone 2: Buspirone 2 mg/kg, i.p. 30 min before test, n=10.
Rats were put in open-field chambers (dimensions 40 cm×40 cm×40 cm) 30 minutes after dosing. After a 15 minutes habituation, locomotion were recorded and analyzed by Enthovision Video Tracking Software (Noldus Information Technology, Netherlands) for 60 minutes. All locomotor activities were done during dark phase and to eliminate olfactory cues, the arena was thoroughly cleaned with 70% v/v ethanol between each test.
Data statistics: The total locomotor activity is expressed as total moved distance (cm) and average velocity (cm/s) every 10 minutes during 60 minutes. The data were analyzed using One-Way ANOVA and the Tukey post-hoc test. The locomotor activity in six time point is expressed as moved distance (cm) and average velocity (cm/s) every 10 minutes. The data were analyzed using One-Way ANOVA and the Tukey post-hoc test in each time point.

Structures are written as SMILES. Where two headings read alike, the source gives them in different places.

On to `O=C1CC2(CCCC2)CC(=O)N1CCCCN1CCN(c2ncccn2)CC1` [buspirone, 8-[4-(4-pyrimidin-2-ylpiperazin-1-yl)butyl]-8-azaspiro[4.5]decane-7,9-dione], for which the “effects on tardive dyskinesia, Parkinsonism and akathisia” value in data set [1] is recorded as “has effects”. Besides, the “abnormal involuntary movements (AIM), sum of Lo, Ax, Li and Ol scores per testing session, time course” value in data set [2] (FIG. 1, vs vehicle) is “partially reduced”. The “AUC (20-60 min) of total AIM (Lo+Ax+Li+Ol)” value in data set [2] (FIG. 2) is “partially reduced”. In data set [2] (FIG. 3), the “AUC (20-60 min) of locomotive limb (Li) AIM scores” value is given as “did not have an effect”. Besides, the “AUC (20-60 min) of locomotive Axial (Ax) AIM scores” value in data set [2] (FIG. 4) is “partially reduced”. The “AUC (20-60 min) of Orolingual (OL) AIM scores” value in data set [2] (FIG. 5) is “significantly reduced”. Moreover, in data set [3], the “AUC (10-190 min) of total AIM (Lo+Ax+Li+Ol)” value was “small effect”.
Consider `CCOC(=O)Nc1ccc(NCc2ccc(F)cc2)cc1N` [retigabine, N-(2-amino-4-(4-fluorobenzylamino)-phenylcarbamic acid) ethyl ester], for which the “total move distance (locomotor activity) in open field test” value in data set [4] (after 20 to 60 minutes) is on record as “no significant differences”; in data set [4] (initially, vs vehicle), “significantly inhibit”. Further, the “total velocity (locomotor activity) in open field test” value was “no significant differences” in data set [4] (after 20 to 60 minutes) and “significantly inhibit” in data set [4] (after 10 minutes, vs vehicle). In addition, the “locomotor activity (moving distance and velocity) in open field test” value in data set [4] (after 20 mins) is “no significant difference”; in data set [4] (initially (after 10 min)), “significantly inhibit”.

The values are drawn from patent US20140243350A1, “USE OF SEROTONIN RECEPTOR AGONISTS FOR TREATMENT OF MOVEMENT DISORDERS” (CONTERA PHARMA APS, priority 2011, published 2014).
